Data reported in patent publication US10538535B2, “Antitumoral compounds” (priority 2017, dated 2020).
Read-outs that look alike come from different tables or passages of the source.

Experiments:
[1] = MTD (Maximum Tolerated Dose) determination, single iv administration; type: in vivo; conditions: mice, iv/SD
Excerpt: (§1) Female CD-1 or Athymic Nude-Fox1 nu/nu mice (Envigo) were utilized for all experiments. […] Animals were acclimated for five days prior to being individually tattoo-identified. Animal protocols were reviewed and approved according to the regional Institutional Animal Care and Use Committees.
(§2) Mice were randomly allocated into experimental groups and intravenously administered, once for the MTD (Maximum Tolerated Dose) determination or one administration a week during three consecutive weeks, for the MTMD (Maximum Tolerated Multiple Dose) determination study. The animals were administered with white formulation or with compound dissolved in the experimental formulation at different concentrations. The volume administered was always 10 mL/kg. Once administered, animals were monitored for clinical signs of systemic toxicity, changes in body weight and mortality up to 14 days after the administration.

[2] = MTMD (Maximum Tolerated Multiple Dose) determination, iv weekly x3; type: in vivo; conditions: mice; iv/Q7dx3
Excerpt: as §1, §2

HT29 cells = test: cells; conditions: for CC50: read-out: LC50
Method in brief: (§3)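 Human cancer lines grown in DMEM plus 10% FBS at 37° C. were plated at 5000 cells/well and left 18 hours before dosing. Test compounds (10 to 0.003 μg/mL, triplicates) acted for 72 hours, after which glutaraldehyde-fixed cells were stained with sulforhodamine B.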

A549 cells = test: cells; conditions: for CC50: read-out: LC50
Method in brief: as §3

HT1080 tumors = test: In vivo xenograft, human fibrosarcoma HT1080; conditions: HT1080; Day 28; iv Days 0, 7, 14; 4-R 0.30 mg/kg
Description: Female athymic nu/nu mice (Harlan Laboratories Models, S. L. Barcelona, Spain or Envigo, Spain) were utilized for all experiments. Animal were housed in individually ventilated cages Sealsafe® Plus, Techniplast S.P.A.), up to ten per cage on a 12-hour light-dark cycle at 21-23° C. and 40-60% humidity. […] Animals were acclimated for at least 5 days prior to tumor implantation with a tumor cell suspension.
HT1080 cells were maintained in vitro at 37° C. with 5% CO2 in Minimum Essential Medium Eagle (MEME) (Sigma-Aldrich, Co). Each animal was orthotopically implanted into gastroecnemius muscle by an intramuscular injection using a 26 G needle and a 1 cc syringe at 4-6 weeks of age, with 10×10^6 HT1080 cells, suspended in serum free medium, without antibiotics.
(§4) Treatment tolerability was assessed by monitoring body weight evolution, clinical signs of systemic toxicity, as well as evidences of local damage in the injection site.
In xenograft studies with HT1080 cell line: • Total diameter (tumor+leg) measurements were determined by using digital caliper (Fowler Sylvac, S235PAT).
(§5) Treatments producing >20% lethality and/or 20% net body weight loss were considered toxic.

MDA-MB-231 cells = test: cells; conditions: for CC50: read-out: LC50
Method in brief: as §3

PSN1 cells = test: cells; conditions: for CC50: read-out: LC50
Method in brief: as §3

PC-3 tumors = conditions: 12-R 0.05 mg/kg
Excerpt: In this model, instead of male, female animals were used because PC-3 growth is not hormone dependant.

H82 tumors = test: In vivo xenograft, human lung (SCLC) H82; conditions: iv Days 0, 7, 14, 12-R 0.05 mg/kg, Compound D 0.5 mg/kg
H526 tumors = test: In vivo xenograft, human lung (SCLC) H526; conditions: iv Days 0, 7, 14, 12-R 0.05 mg/kg, Compound D 0.5 mg/kg
Description: (§6) Female athymic nu/nu mice (Harlan Laboratories Models, S. L. Barcelona, Spain or Envigo, Spain) were utilized for all experiments. Animal were housed in individually ventilated cages Sealsafe® Plus, Techniplast S.P.A.), up to ten per cage on a 12-hour light-dark cycle at 21-23° C. and 40-60% humidity. Mice were allowed free access to irradiated standard rodent diet (Tecklad 2914C) and sterilized water. Animals were acclimated for at least 5 days prior to tumor implantation with a tumor cell suspension.
H526 cells were grown as a suspension and maintained by addition of fresh medium, as the cell density increases, every 2 to 3 days. Every week, culture was reestablished by centrifugation of the suspension with subsequent resuspension in fresh medium at a concentration of 1×10^5 cell/mL. Each animal was subcutaneously implanted (on the right flank using 26 G needle and a 1 cc syringe) at 4-6 weeks of age with 5×10^6 H526 cells suspended in 0.05 mL of a solution consisting of 50% Matrigel® (Corning Incorporated Life Sciences) and 50% medium without serum or antibiotics.
as §4, §5

[3] = MDA-MB-231, 72 hours treatment, SRB

Description for DU-145 tumors: as §6
Culture cells were passaged every 3 to 5 days upon reaching confluence Each male athymic mice was subcutaneously implanted (on the right flank using a 26 G needle and a 1 cc syringe) at 4-6 weeks of age with 5×10^6 DU-145 cells suspended in 0.05 mL of a solution consisting of 50% Matrigel® Matrix (Corning Incorporated Life Sciences) and 50% medium without serum or antibiotics.
as §4
In xenograft studies with other cell lines: • Tumor volume was calculated using the equation (a·b^2)/2, where a: length (longest diameter) and b: width (shortest diameter) were measured in mm by using digital caliper (Fowler Sylvac, S235PAT).
as §5
Tables and figures summarize the data obtained from complete experimental groups, i.e. those groups keeping the initial number of animals, n=8-10.

## COc1c(C)cc2c(c1O)[C@@H]1[C@@H]3[C@@H]4SC[C@]5(N[C@@H](CO)Cc6c5[nH]c5ccccc65)C(=O)OC[C@@H](c5c6c(c(C)c(OC(C)=O)c54)OCO6)N3[C@@H](O)[C@H](C2)N1C [Compound 4-R]
[1]; female, mouse, in vivo
  MTD at 14 days: 0.25 mg/kg
[2]
  MTMD: 0.30 mg/kg
HT29 cells; Homo sapiens, HT-29, 72 h
  CC50: > 127 nM
A549 cells; Homo sapiens, A549, 72 h
  CC50: > 127 nM
HT1080 tumors
  Total diameter (tumor + leg): 18.0 mm

## COc1ccc2oc3c(c2c1)CCN[C@]31CS[C@@H]2c3c(OC(C)=O)c(C)c4c(c3[C@H](COC1=O)N1[C@@H]2[C@H]2c3c(cc(C)c(OC)c3O)C[C@@H]([C@@H]1O)N2C)OCO4 [Compound 35]
[2]
  MTMD: 0.25 mg/kg
HT29 cells; Homo sapiens, HT-29, 72 h
  GI50: 7.89 nM
  CC50: > 127 nM
HT29 cells; Homo sapiens, HT-29, 72 h, read-out: TGI
  IC (TGI): 8.65 nM
MDA-MB-231 cells; Homo sapiens, MDA-MB-231, 72 h
  GI50: 4.58 nM
  CC50: 16.5 nM
MDA-MB-231 cells; Homo sapiens, MDA-MB-231, 72 h, read-out: TGI
  IC (TGI): 8.27 nM
A549 cells; Homo sapiens, A549, 72 h
  GI50: 8.14 nM
  CC50: > 127 nM
A549 cells; Homo sapiens, A549, 72 h, read-out: TGI
  IC (TGI): 8.78 nM
PSN1 cells; Homo sapiens, PSN1, 72 h
  GI50: 6.24 nM
  CC50: 14 nM
PSN1 cells; Homo sapiens, PSN1, 72 h, read-out: TGI
  IC (TGI): 9.03 nM

## COc1ccc2[nH]c3c(c2c1)C[C@@H](CO)N[C@]31CS[C@@H]2c3c(OC(C)=O)c(C)c4c(c3[C@H](COC1=O)N1[C@@H]2[C@H]2c3c(cc(C)c(OC)c3O)C[C@@H]([C@@H]1O)N2C)OCO4 [Compound 19-S]
[1]
  MTD: 0.5 mg/kg
[2]
  MTMD: 0.75 mg/kg
HT29 cells; HT29, 72 hours treatment, SRB
  GI50: 1.35 nM
  TGI: 1.60E−09 Molar
  CC50: > 123 nM
MDA-MB-231 cells; [3]
  GI50: 1.96 nM
  TGI: 3.31E−09 Molar
  CC50: 11 nM
A549 cells; A549, 72 hours treatment, SRB
  GI50: 3.07 nM
  TGI: 3.31E−09 Molar
  CC50: > 123 nM
PSN1 cells; PSN1, 72 hours treatment, SRB
  GI50: 2.95 nM
  TGI: 3.19E−09 Molar
  CC50: > 123 nM

## COc1c(C)cc2c(c1O)[C@@H]1[C@@H]3[C@@H]4SC[C@]5(N[C@H](CO)Cc6c5oc5ccccc65)C(=O)OC[C@@H](c5c6c(c(C)c(OC(C)=O)c54)OCO6)N3[C@@H](O)[C@H](C2)N1C [Compound 39-S]
DU-145 tumors; Day 0, 39-S 1.00 mg/Kg iv Days 0, 7 and 14
  Median Tumor Volume: 179.9 mm^3
DU-145 tumors; Day 2, 39-S 1.00 mg/Kg iv Days 0, 7 and 14
  Median Tumor Volume: 199.9 mm^3
DU-145 tumors; Day 4, 39-S 1.00 mg/Kg iv Days 0, 7 and 14
  Median Tumor Volume: 222.2 mm^3
DU-145 tumors; Day 7, 39-S 1.00 mg/Kg iv Days 0, 7 and 14
  Median Tumor Volume: 340.5 mm^3
DU-145 tumors; Day 9, 39-S 1.00 mg/Kg iv Days 0, 7 and 14
  Median Tumor Volume: 354.1 mm^3
DU-145 tumors; Day 11, 39-S 1.00 mg/Kg iv Days 0, 7 and 14
  Median Tumor Volume: 349.7 mm^3
DU-145 tumors; Day 14, 39-S 1.00 mg/Kg iv Days 0, 7 and 14
  Median Tumor Volume: 429.1 mm^3
DU-145 tumors; Day 16, 39-S 1.00 mg/Kg iv Days 0, 7 and 14
  Median Tumor Volume: 454.8 mm^3
DU-145 tumors; Day 18, 39-S 1.00 mg/Kg iv Days 0, 7 and 14
  Median Tumor Volume: 449.7 mm^3
DU-145 tumors; Day 21, 39-S 1.00 mg/Kg iv Days 0, 7 and 14
  Median Tumor Volume: 517.5 mm^3
DU-145 tumors; Day 23, 39-S 1.00 mg/Kg iv Days 0, 7 and 14
  Median Tumor Volume: 568.5 mm^3
DU-145 tumors; Day 25, 39-S 1.00 mg/Kg iv Days 0, 7 and 14
  Median Tumor Volume: 629.4 mm^3
DU-145 tumors; Day 28, 39-S 1.00 mg/Kg iv Days 0, 7 and 14
  Median Tumor Volume: 775.7 mm^3
HT29 cells; Homo sapiens, HT-29, 72 h
  CC50: > 127 nM

## COc1ccc2[nH]c3c(c2c1)C[C@H](CO)N[C@]31CS[C@@H]2c3c(OC(C)=O)c(C)c4c(c3[C@H](COC1=O)N1[C@@H]2[C@H]2c3c(cc(C)c(OC)c3O)C[C@@H]([C@@H]1O)N2C)OCO4 [Compound 19-R]
[1]
  MTD: 0.15 mg/kg
[2]
  MTMD: 0.15 mg/kg
MDA-MB-231 cells; [3]
  TGI: 1.35E−09 Molar
  CC50: > 123 nM
A549 cells; A549, 72 hours treatment, SRB
  TGI: 3.56E−09 Molar
  CC50: > 123 nM
PSN1 cells; PSN1, 72 hours treatment, SRB
  TGI: 1.35E−09 Molar

## COc1c(C)cc2c(c1O)[C@@H]1[C@@H]3[C@@H]4SC[C@]5(N[C@@H](CN)Cc6c5[nH]c5ccccc65)C(=O)OC[C@@H](c5c6c(c(C)c(OC(C)=O)c54)OCO6)N3[C@@H](O)[C@H](C2)N1C [Compound 12-R]
PC-3 tumors; Day 0, iv Days 0, 7 and 14, 12-S […]
  Median Tumor Volume: 129.0 mm^3
PC-3 tumors; Day 2, iv Days 0, 7 and 14, 12-S […]
  Median Tumor Volume: 136.2 mm^3
PC-3 tumors; Day 4, iv Days 0, 7 and 14, 12-S […]
  Median Tumor Volume: 144.2 mm^3
PC-3 tumors; Day 7, iv Days 0, 7 and 14, 12-S […]
  Median Tumor Volume: 172.2 mm^3
PC-3 tumors; Day 11, iv Days 0, 7 and 14, 12-S […]
  Median Tumor Volume: 183.6 mm^3
PC-3 tumors; Day 14, iv Days 0, 7 and 14, 12-S […]
  Median Tumor Volume: 205.2 mm^3
PC-3 tumors; Day 16, iv Days 0, 7 and 14, 12-S […]
  Median Tumor Volume: 256.0 mm^3
PC-3 tumors; Day 18, iv Days 0, 7 and 14, 12-S […]
  Median Tumor Volume: 325.7 mm^3
PC-3 tumors; Day 21, iv Days 0, 7 and 14, 12-S […]
  Median Tumor Volume: 322.2 mm^3
PC-3 tumors; Day 23, iv Days 0, 7 and 14, 12-S […]
  Median Tumor Volume: 407.8 mm^3
PC-3 tumors; Day 25, iv Days 0, 7 and 14, 12-S […]
  Median Tumor Volume: 419.9 mm^3
PC-3 tumors; Day 29, iv Days 0, 7 and 14, 12-S […]
  Median Tumor Volume: 459.1 mm^3
PC-3 tumors; Day 32, iv Days 0, 7 and 14, 12-S […]
  Median Tumor Volume: 512.1 mm^3
PC-3 tumors; Day 35, iv Days 0, 7 and 14, 12-S […]
  Median Tumor Volume: 579.2 mm^3
PC-3 tumors; Day 37, iv Days 0, 7 and 14, 12-S […]
  Median Tumor Volume: 613.8 mm^3
PC-3 tumors; Day 39, iv Days 0, 7 and 14, 12-S […]
  Median Tumor Volume: 764.1 mm^3
PC-3 tumors; Day 42, iv Days 0, 7 and 14, 12-S […]
  Median Tumor Volume: 785.0 mm^3
PC-3 tumors; Day 44, iv Days 0, 7 and 14, 12-S […]
  Median Tumor Volume: 845.5 mm^3
PC-3 tumors; Day 46, iv Days 0, 7 and 14, 12-S […]
  Median Tumor Volume: 748.0 mm^3
PC-3 tumors; Day 49, iv Days 0, 7 and 14, 12-S […]
  Median Tumor Volume: 808.7 mm^3
PC-3 tumors; Day 51, iv Days 0, 7 and 14, 12-S […]
  Median Tumor Volume: 855.8 mm^3
PC-3 tumors; Day 56, iv Days 0, 7 and 14, 12-S […]
  Median Tumor Volume: 1125.2 mm^3
H82 tumors; Table 33, Day 0.0
  Median Tumor Volume: 170.50 mm^3
H82 tumors; Table 33, Day 2.0
  Median Tumor Volume: 381.40 mm^3
H82 tumors; Table 33, Day 5.0
  Median Tumor Volume: 793.20 mm^3
H82 tumors; Table 33, Day 7.0
  Median Tumor Volume: 1187.20 mm^3
H82 tumors; Table 33, Day 9.0
  Median Tumor Volume: 1699.30 mm^3
H82 tumors; Table 33, Day 12.0
  Median Tumor Volume: 2125.60 mm^3
PSN1 cells; Homo sapiens, PSN1, 72 h
  CC50: > 128 nM
H526 tumors; Table 32, Day 0.0
  Median Tumor Volume: 214.20 mm^3
H526 tumors; Table 32, Day 2.0
  Median Tumor Volume: 404.50 mm^3
H526 tumors; Table 32, Day 4.0
  Median Tumor Volume: 680.50 mm^3
H526 tumors; Table 32, Day 7.0
  Median Tumor Volume: 995.20 mm^3
H526 tumors; Table 32, Day 9.0
  Median Tumor Volume: 1290.50 mm^3
H526 tumors; Table 32, Day 11.0
  Median Tumor Volume: 1568.00 mm^3
H526 tumors; Table 32, Day 14.0
  Median Tumor Volume: 2025.00 mm^3
